Measured values taken from patent US4777167A, “Pharmaceutically useful substituted thiacycloalkeno [3,2-b]pyridines, compositions and method of use” (Ortho Pharmaceutical Corporation, priority 1987, dated 1988).

Tests used:
calcium channels = biological target: T1, calcium channels (Oryctolagus cuniculus, UniProt P15381); assay: Inhibition of nitrendipine binding (3H-nitrendipine displacement, rabbit heart membranes); design: species or system rabbit (New Zealand white); conditions: Table II, 90 min, 4° C.
T1 construct: from tissue; host or cells: heart of female New Zealand white rabbits, membrane fraction (42,000×g pellet)
Protocol: (1) Inhibition of nitrendipine binding to calcium channels.
The assay for inhibition of nitrendipine binding follows the following procedure:
Female, New Zealand white rabbits (1-2 kg) are sacrificed by cervical dislocation, and the heart is immediately removed, cleaned, and chopped into small pieces. The tissue is homogenized in 5× volume of 0.05M Hepes buffer, pH 7.4. The homogenate is centrifuged at 4000×g for 10 minutes; the supernatant is recentrifuged at 42,000×g for 90 minutes. The resulting membrane pellet is resuspended (0.7 ml/g weight) in 0.05M Hepes, pH 7.4 and stored at -70° C. until used. Each tube of the binding assay contains ^3 H- nitrendipine (0.05-0.50 nM), buffer, membranes (0.10 ml), and test compound in a total volume of 1.0 ml. After 90 minutes at 4° C., the bound nitrendipine is separated from the unbound by filtration on Whatman GF/C fibers. After rinsing, the filters are dried and counted in a liquid scintillation counter.
Non-specific binding of ^3 H-nitrendipine (that amount bound in the presence of excess unlabelled nitrendipine) is subtracted from the total bound to obtain specifically bound radiolabeled nitrendipine. The amount of specifically bound nitrendipine in the presence of a test compound is compared to that amount bound in the absence of a compound. A percent displacement (or inhibition) can then be obtained.

trachealis muscle = assay: Inhibition of calcium dependent smooth muscle contraction (KCl-challenged trachea); type: cell-based, dog; conditions: Canis lupus familiaris, Table II; for inhibition at 0.1 µM: concentration 0.1 μM; for inhibition at 0.1 µM / inhibition at 0.2 µM / inhibition at 2 µM: read-out: Inhibition Trachea Muscle Contraction % Inhibition; for inhibition at 0.2 µM: concentration 0.2 μM; for inhibition at 2 µM: concentration 2.0 μM; for inhibition at 1 µM: concentration 1.0 μM
Protocol: The test for inhibition of calcium dependent smooth muscle contraction is determined according to the following procedure:
Trachea from dogs sacrificed by excess KCl injection are stored overnight at 4° C. in oxygenated Krebs-Henseleit buffer. Tracheal rings, one cartilage segment wide (5-10 mm), are cut starting from the bronchial end. After cutting the cartilage, the trachealis muscle tissue is suspended in oxygenated Krebs-Henseleit buffer at 37° C. in a 25 ml tissue bath. After a 60 minutes equilibration period, the tissues are challenged with 10 μM carbachol. After 5 minutes the tissues are rinsed and allowed to rest 50 minutes. The tissues are then challenged with 50 mM KCl and, after 30 minutes, the contractions are quantitated. The tissues are then rinsed and reequilibrated for 50 minutes. Test compounds are then added for 10 minutes, and the tissue is rechallenged with 50 mMKcl. After 30 minutes, the contraction is recorded and used to determine the % inhibition of control.
The percent inhibition of smooth muscle contraction is calculated from response data before and after drug treatment. [formula] A rating is assigned to the compound depending upon the percent inhibition obtained.

Aorta Muscle = assay: Inhibition of aorta muscle contraction; type: cell-based; conditions: Table II; for inhibition at 0.1 µM: concentration 0.1 μM

T1 sequence (P15381 whole entry, other chains not shown): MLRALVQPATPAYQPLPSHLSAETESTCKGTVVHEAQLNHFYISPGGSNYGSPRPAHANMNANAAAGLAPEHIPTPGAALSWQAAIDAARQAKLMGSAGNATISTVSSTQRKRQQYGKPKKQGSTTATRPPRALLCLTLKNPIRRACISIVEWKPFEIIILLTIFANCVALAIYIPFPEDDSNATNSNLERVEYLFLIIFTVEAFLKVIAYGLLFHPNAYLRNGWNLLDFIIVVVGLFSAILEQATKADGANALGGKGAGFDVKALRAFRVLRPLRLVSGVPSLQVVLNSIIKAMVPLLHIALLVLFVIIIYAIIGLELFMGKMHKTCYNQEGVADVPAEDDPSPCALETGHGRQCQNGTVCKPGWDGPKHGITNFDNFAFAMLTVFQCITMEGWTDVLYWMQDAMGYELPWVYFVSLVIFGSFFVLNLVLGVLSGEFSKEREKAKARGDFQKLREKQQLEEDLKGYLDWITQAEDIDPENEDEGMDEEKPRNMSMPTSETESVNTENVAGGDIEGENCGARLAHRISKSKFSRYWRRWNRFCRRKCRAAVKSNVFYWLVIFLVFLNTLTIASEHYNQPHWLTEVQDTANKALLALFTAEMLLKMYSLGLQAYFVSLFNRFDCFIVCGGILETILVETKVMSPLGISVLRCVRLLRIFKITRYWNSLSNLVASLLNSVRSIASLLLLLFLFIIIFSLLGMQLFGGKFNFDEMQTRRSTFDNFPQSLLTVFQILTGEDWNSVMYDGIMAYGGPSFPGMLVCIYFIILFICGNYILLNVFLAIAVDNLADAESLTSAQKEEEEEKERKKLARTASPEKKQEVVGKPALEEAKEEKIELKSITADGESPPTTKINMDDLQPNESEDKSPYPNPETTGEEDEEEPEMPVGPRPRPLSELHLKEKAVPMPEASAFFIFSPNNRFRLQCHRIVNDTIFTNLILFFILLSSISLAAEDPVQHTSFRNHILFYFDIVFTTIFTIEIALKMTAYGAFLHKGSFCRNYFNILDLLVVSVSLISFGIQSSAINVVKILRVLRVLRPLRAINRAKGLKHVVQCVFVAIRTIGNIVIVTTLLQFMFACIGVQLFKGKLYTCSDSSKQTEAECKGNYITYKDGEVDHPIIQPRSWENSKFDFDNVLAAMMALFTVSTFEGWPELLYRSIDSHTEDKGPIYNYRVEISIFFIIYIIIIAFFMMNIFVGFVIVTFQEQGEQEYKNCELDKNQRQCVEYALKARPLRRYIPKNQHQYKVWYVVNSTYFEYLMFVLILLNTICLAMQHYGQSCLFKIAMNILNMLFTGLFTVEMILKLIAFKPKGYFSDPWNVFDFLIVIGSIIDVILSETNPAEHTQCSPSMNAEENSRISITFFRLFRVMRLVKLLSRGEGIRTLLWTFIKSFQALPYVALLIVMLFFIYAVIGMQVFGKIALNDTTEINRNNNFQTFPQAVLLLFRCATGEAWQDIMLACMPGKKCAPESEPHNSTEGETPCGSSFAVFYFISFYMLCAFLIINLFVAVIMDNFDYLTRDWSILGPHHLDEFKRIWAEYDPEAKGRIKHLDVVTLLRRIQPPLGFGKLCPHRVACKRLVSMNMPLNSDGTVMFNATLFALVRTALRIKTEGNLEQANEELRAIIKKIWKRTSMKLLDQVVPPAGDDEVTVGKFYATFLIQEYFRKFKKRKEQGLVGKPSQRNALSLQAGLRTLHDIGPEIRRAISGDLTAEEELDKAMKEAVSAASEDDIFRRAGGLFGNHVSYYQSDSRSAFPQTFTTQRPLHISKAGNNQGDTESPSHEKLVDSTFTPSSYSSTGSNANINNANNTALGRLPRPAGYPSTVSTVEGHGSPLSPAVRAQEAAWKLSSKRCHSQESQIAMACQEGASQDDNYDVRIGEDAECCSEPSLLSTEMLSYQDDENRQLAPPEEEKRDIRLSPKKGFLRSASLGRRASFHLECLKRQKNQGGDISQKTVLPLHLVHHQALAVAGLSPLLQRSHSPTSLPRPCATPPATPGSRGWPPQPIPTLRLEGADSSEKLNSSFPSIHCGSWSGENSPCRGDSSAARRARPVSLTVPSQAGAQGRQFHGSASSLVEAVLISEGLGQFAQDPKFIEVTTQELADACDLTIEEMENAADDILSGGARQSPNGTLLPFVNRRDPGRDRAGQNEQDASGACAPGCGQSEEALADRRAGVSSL
T1 sequence (P13806 27-960 partner limits assumed, other chains not shown): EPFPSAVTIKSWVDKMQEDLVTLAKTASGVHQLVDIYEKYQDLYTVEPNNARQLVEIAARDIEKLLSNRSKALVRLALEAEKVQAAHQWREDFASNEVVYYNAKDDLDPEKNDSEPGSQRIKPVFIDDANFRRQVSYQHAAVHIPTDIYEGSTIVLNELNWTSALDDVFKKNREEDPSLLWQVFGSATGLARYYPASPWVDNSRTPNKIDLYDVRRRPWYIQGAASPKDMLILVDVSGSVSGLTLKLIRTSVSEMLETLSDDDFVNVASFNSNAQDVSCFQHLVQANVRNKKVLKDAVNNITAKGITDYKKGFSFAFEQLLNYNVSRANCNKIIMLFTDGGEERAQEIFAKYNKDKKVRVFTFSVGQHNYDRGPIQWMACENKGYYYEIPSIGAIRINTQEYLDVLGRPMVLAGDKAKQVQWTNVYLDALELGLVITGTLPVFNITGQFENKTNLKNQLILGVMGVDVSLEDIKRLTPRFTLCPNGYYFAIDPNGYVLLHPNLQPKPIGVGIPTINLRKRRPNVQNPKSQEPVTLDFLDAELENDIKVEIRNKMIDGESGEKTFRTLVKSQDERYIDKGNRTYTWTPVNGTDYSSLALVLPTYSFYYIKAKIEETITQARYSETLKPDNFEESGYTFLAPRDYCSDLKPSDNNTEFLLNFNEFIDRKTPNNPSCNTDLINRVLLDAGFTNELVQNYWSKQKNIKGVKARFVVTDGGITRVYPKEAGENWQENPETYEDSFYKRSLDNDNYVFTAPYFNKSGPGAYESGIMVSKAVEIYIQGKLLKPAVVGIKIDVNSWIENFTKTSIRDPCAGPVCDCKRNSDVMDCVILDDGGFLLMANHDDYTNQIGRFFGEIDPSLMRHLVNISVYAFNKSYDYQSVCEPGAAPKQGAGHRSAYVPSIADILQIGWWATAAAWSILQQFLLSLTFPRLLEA
T1 sequence (P13806 961-1106 partner limits assumed, other chains not shown): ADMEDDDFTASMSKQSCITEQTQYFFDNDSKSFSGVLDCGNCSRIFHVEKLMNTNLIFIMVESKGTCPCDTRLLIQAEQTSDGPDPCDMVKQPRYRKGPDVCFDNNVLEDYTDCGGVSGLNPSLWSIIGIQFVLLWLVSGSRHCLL

| Structure (SMILES) | IC50 (calcium channels) | inhibition at 0.1 µM (trachealis muscle) | inhibition at 0.1 µM (Aorta Muscle) | inhibition at 0.2 µM (trachealis muscle) | inhibition at 2 µM (trachealis muscle) | inhibition at 1 µM (trachealis muscle) | inhibition at 3 µM (Aorta Muscle; concentration 3.0 μM) | inhibition at 0.01 µM (Aorta Muscle; concentration 0.01 μM) |
| --- | --- | --- | --- | --- | --- | --- | --- | --- |
| CC1=C(C(=O)OCCN(C)Cc2ccccc2)C(c2c(Cl)cccc2Cl)C2=C(CCCCS2(=O)=O)N1 (stereo not drawn) [4 2,6-Cl2C6 H3] | 0.086 µM | 55% | 50% | – | – | – | – | – |
| CC1=C(C(=O)OCCN(C)c2ccccc2)C(c2ccccc2C(F)(F)F)C2=C(CCCCS2(=O)=O)N1 (stereo not drawn) [4 2-CF3C6 H4 CH2 CH2 NCH3 C6 H5] | 0.046 µM | 59% | 57% | – | – | – | – | – |
| CC1=C(C(=O)OCCN(C)Cc2ccccc2)C(c2ccccc2C(F)(F)F)C2=C(CCCCS2(=O)=O)N1 (stereo not drawn) [4 2-CF3C6 H4, N-Benzyl-N-methylaminoethyl 2,4,5,6,9-hexahydro-7-methyl-9-(2-trifluoromethylphenyl)-1,1-dioxothiacyclohepteno[3,2-b]pyridine-8-carboxylate] | 0.16 µM | 64% | 85% | – | – | – | – | – |
| CC1=C(C(=O)OCCN(C)Cc2ccccc2)C(c2cccc(C(F)(F)F)c2Cl)C2=C(CCCCS2(=O)=O)N1 (stereo not drawn) [4 2-Cl,3-CF3C6 H3] | 0.39 µM | – | 66% | 50% | – | – | – | – |
| CC1=C(C(=O)OCCN(C)Cc2ccccc2)C(c2cc([N+](=O)[O-])ccc2Cl)C2=C(CCCCS2(=O)=O)N1 (stereo not drawn) [4 2-Cl,5-NO2C6 H3] | 0.26 µM | 38% | 63% | – | – | – | – | – |
| CC1=C(C(=O)OCCN(C)Cc2ccccc2)C(c2c(F)cccc2Cl)C2=C(CCCCS2(=O)=O)N1 (stereo not drawn) [4 2-Cl,6-FC6 H3, N-Benzyl-N-methylaminoethyl 9-(2-chloro-6-fluorophenyl)-2,4,5,6,9-hexahydro-7-methyl-1,1-dioxothiacyclohepteno[3,2-b]pyridine-8-carboxylate] | 0.029 µM | 50% | 66% | – | – | – | – | – |
| CC1=C(C(=O)OCCN(C)Cc2ccccc2)C(c2ccccc2Cl)C2=C(CCCCS2(=O)=O)N1 (stereo not drawn) [4 2-ClC6 H4, N-Benzyl-N-methylaminoethyl 9-(2-chlorophenyl)-2,4,5,6,9-hexahydro-7-methyl-1,1-dioxothiacyclohepteno[3,2-b]pyridine-8-carboxylate] | 0.22 µM | 57% | 54% | – | – | – | – | – |
| CC1=C(C(=O)OCCN(C)Cc2ccccc2)C(c2ccccc2F)C2=C(CCCCS2(=O)=O)N1 (stereo not drawn) [4 2-FC6 H4] | 0.44 µM | – | 32% | – | 84% | – | – | – |
| CC1=C(C(=O)OCCCN(C)Cc2ccccc2)C(c2ccccc2[N+](=O)[O-])C2=C(CCCCS2(=O)=O)N1 (stereo not drawn) [4 2-NO2C6 H4 CH2 CH2 CH2 NCH3 CH2 C6 H5] | 1 µM | – | 7.7% | – | – | 41% | – | – |
| CC1=C(C(=O)OCCN(C)c2ccccc2)C(c2ccccc2[N+](=O)[O-])C2=C(CCCCS2(=O)=O)N1 (stereo not drawn) [4 2-NO2C6 H4 CH2 CH2 NCH3 C6 H5] | 0.086 µM | 57% | 43% | – | – | – | – | – |
| CC1=C(C(=O)OCCN(C)Cc2ccccc2)C(c2ccccc2[N+](=O)[O-])C2=C(CCCCS2(=O)=O)N1 (stereo not drawn) [4 2-NO2C6 H4] | 0.44 µM | 49% | 44% | – | – | – | – | – |
| CC1=C(C(=O)OCCN(C)Cc2ccccc2)C(c2cccc(C(F)(F)F)c2)C2=C(CCCCS2(=O)=O)N1 (stereo not drawn) [4 3-CF3C6 H4] | 2.8 µM | – | 44% | 37% | – | – | – | – |
| CC1=C(C(=O)OCCCN(C)Cc2ccccc2)C(c2cccc([N+](=O)[O-])c2)C2=C(CCCCS2(=O)=O)N1 (stereo not drawn) [4 3-NO2 C6 H4 CH2 CH2 CH2 NCH3 CH2 C6 H5] | 0.29 µM | – | 25% | – | 50% | – | – | – |
| CC1=C(C(=O)OCCN(C)c2ccccc2)C(c2cccc([N+](=O)[O-])c2)C2=C(CCCCS2(=O)=O)N1 (stereo not drawn) [4 3-NO2C6 H4 CH2 CH2 NCH3 C6 H5] | 0.045 µM | – | 53% | – | – | 65% | – | – |
| CC1=C(C(=O)OCCNc2ccccc2)C(c2cccc([N+](=O)[O-])c2)C2=C(CCCCS2(=O)=O)N1 (stereo not drawn) [4 3-NO2C6 H4 CH2 CH2 NHC6 H5] | 0.016 µM | – | 48% | – | – | 72% | – | – |
| CC1=C(C(=O)OCCO)C(c2cccc([N+](=O)[O-])c2)C2=C(CCCCS2(=O)=O)N1 (stereo not drawn) [4 3-NO2C6 H4 CH2 CH2 OH] | 2.4 µM | – | – | – | 23% | – | 41% | – |
| CC1=C(C(=O)OC2CCN(Cc3ccccc3)CC2)C(c2cccc([N+](=O)[O-])c2)C2=C(CCCCS2(=O)=O)N1 (stereo not drawn) [4 3-NO2C6 H4 drawing 7] | 0.86 µM | – | 12% | – | 17% | – | – | – |
| CC1=C(C(=O)OCCN2CCc3ccccc32)C(c2cccc([N+](=O)[O-])c2)C2=C(CCCCS2(=O)=O)N1 (stereo not drawn) [4 3-NO2C6 H4 drawing 9] | 0.1 µM | – | 80% | – | – | 56% | – | – |
| CC1=C(C(=O)OCCN2CCc3ccccc3C2)C(c2cccc([N+](=O)[O-])c2)C2=C(CCCCS2(=O)=O)N1 (stereo not drawn) [4 3-NO2C6 H4 drawing 11] | 0.2 µM | – | 53% | 45% | – | – | – | – |
| CC1=C(C(=O)OCCN(C)Cc2ccccc2)C(c2cccc(Cl)c2Cl)C2=C(CCCCCS2(=O)=O)N1 (stereo not drawn) [5 2,3-Cl2C6 H3] | 0.075 µM | 26% | 58% | – | – | – | – | – |
| CC1=C(C(=O)OCCN(C)Cc2ccccc2)C(c2cccc(C(F)(F)F)c2Cl)C2=C(CCCCCS2(=O)=O)N1 (stereo not drawn) [5 2-Cl,3-CF3C6 H3, N-Benzyl-N-methylaminoethyl 10-(2-chloro-3-trifluoromethylphenyl)-3,4,5,6,7,10-hexahydro-8-methyl-1,1-dioxothiacycloocteno[3,2-b]pyridine-9-carboxylate] | 0.2 µM | 57% | 78% | – | – | – | – | – |
| CC1=C(C(=O)OCCN(C)Cc2ccccc2)C(c2ccccc2OC(F)F)C2=C(CCCCCS2(=O)=O)N1 (stereo not drawn) [5 2-OCHF2C6 H4, N-Benzyl-N-methylaminoethyl 10-(2-difluoromethoxyphenyl)-3,4,5,6,7,10-hexahydro-8-methyl-1,1-dioxothiacycloocteno[3,2-b]pyridine-9-carboxylate] | 0.095 µM | 76% | – | – | – | – | – | 80% |
| CC1=C(C(=O)OCCc2ccccn2)C(c2cccc([N+](=O)[O-])c2)C2=C(CCCCCS2(=O)=O)N1 (stereo not drawn) [5 3-NO2C6 H4 drawing 10] | 0.065 µM | 53% | 48% | – | – | – | – | – |
| CC1=C(C(=O)OCCN(C)Cc2ccccc2)C(c2cccc([N+](=O)[O-])c2)C2=C(CCCCCS2(=O)=O)N1 (stereo not drawn) [5 3-NO2C6 H4, N-Benzyl-N-methylaminoethyl 3,4,5,6,7,10-hexahydro-8-methyl-10-(3-nitrophenyl)-1,1-dioxo-2H-thiacycloocteno[3,2-b]pyridine-9-carboxylate] | 0.045 µM | 43% | 67% | – | – | – | – | – |
| CC1=C(C(=O)OCCN(C)c2ccccc2)C(c2c(F)c(F)c(F)c(F)c2F)C2=C(CCCCCS2(=O)=O)N1 (stereo not drawn) [5 C6 F5 CH2 CH2 NCH3 C6 H5, N-Methyl-N-phenylaminoethyl 10-(2,3,4,5,6-pentafluorophenyl)-3,4,5,6,7,10-hexahydro-8-methyl-1,1-dioxothiacycloocteno[3,2-b]pyridine-9-carboxylate] | 0.018 µM | 47% | 63% | – | – | – | – | – |
| CC1=C(C(=O)OCCN(C)Cc2ccccc2)C(c2c(F)c(F)c(F)c(F)c2F)C2=C(CCCCCS2(=O)=O)N1 (stereo not drawn) [5 C6 F5, N-Benzyl-N-methylaminoethyl 10-(2,3,4,5,6-pentafluorophenyl)-3,4,5,6,7,10-hexahydro-8-methyl-1,1-dioxo-2H-thiacycloocteno[3,2-b]pyridine-9-carboxylate] | 0.087 µM | 50% | 70% | – | – | – | – | – |
| CC1=C(C(=O)OCCN(C)Cc2ccccc2)C(c2cccc(C(F)(F)F)c2Cl)C2=C(CCCCCCS2(=O)=O)N1 (stereo not drawn) [6 2-Cl,3-CF3C6 H3, N-Benzyl-N-methylaminoethyl 19-(2-chloro-3-trifluoromethylphenyl)-2,3,4,5,6,7,8,11-octahydro-9-methyl-1,1-dioxothiacyclononeno[3,2-b]pyridine-10-carboxylate] | 0.47 µM | – | 30% | – | 46% | – | – | – |
